Source: US8133884B2, “Compounds for the treatment of hepatitis C” (priority 2008, dated 2012)

What was measured:
HCV NS5B = target: T1, HCV NS5B (Hepatitis C virus genotype 1b, UniProt Q9WMX2); assay: Modified HCV NS5B RdRp enzyme assay (preincubation protocol); format: biochemical
T1 construct: The protein was expressed with an 18 amino acid C-terminal truncation to enhance the solubility; made in house; host or cells: E. coli BL21(DE3)
Protocol: The cDNA encoding the NS5B protein of HCV, genotype 1b, was cloned into the pET21a expression vector. The protein was expressed with an 18 amino acid C-terminal truncation to enhance the solubility. The E. coli competent cell line BL21(DE3) was used for expression of the protein. Cultures were grown at 37° C. for ˜4 hours until the cultures reached an optical density of 2.0 at 600 nm. The cultures were cooled to 20° C. and induced with 1 mM IPTG. Fresh ampicillin was added to a final concentration of 50 μg/ml and the cells were grown overnight at 20° C.
Cell pellets (3 L) were lysed for purification to yield 15-24 mgs of purified NS5B. The lysis buffer consisted of 20 mM Tris-HCl, pH 7.4, 500 mM NaCl, 0.5% triton X-100, 1 mM DTT, 1 mM EDTA, 20% glycerol, 0.5 mg/ml lysozyme, 10 mM MgCl2, 15 ug/ml deoxyribonuclease I, and Complete TM protease inhibitor tablets (Roche). After addition of the lysis buffer, frozen cell pellets were resuspended using a tissue homogenizer. To reduce the viscosity of the sample, aliquots of the lysate were sonicated on ice using a microtip attached to a Branson sonicator. The sonicated lysate was centrifuged at 100,000×g for 1 hr at 4° C. and filtered through a 0.2 μm filter unit (Corning).
The protein was purified using three sequential chromatography steps: Heparin sepharose CL-6B, polyU sepharose 4B, and […] SP sepharose (Pharmacia). The chromatography buffers were identical to the lysis buffer but contained no lysozyme, deoxyribonuclease I, MgCl2 or protease inhibitor and the NaCl concentration of the buffer was adjusted according to the requirements for charging the protein onto the column. Each column was eluted with a NaCl gradient which varied in length from 5-50 column volumes depending on the column type. After the final chromatography step, the resulting purity of the enzyme is >90% based on SDS-PAGE analysis. The enzyme was aliquoted and stored at −80° C.
HCV RdRp genotype 1b assays were run in a final volume of 60 μl in 96 well plates (Costar 3912). The assay buffer is composed of 20 mM Hepes, pH 7.5, 2.5 mM KCl, 2.5 mM MgCl2, 1 mM DTT, 1.6 U RNAse inhibitor (Promega N2515), 0.1 mg/ml BSA (Promega R3961), and 2% glycerol. All compounds were serially diluted (3-fold) in DMSO and diluted further in water such that the final concentration of DMSO in the assay was 2%. HCV RdRp genotype 1b enzyme was used at a final concentration of 28 nM. A polyA template was used at 6 nM, and a biotinylated oligo-dT12 primer was used at 180 nM final concentration. Template was obtained commercially (Amersham 27-4110). Biotinylated primer was prepared by Sigma Genosys. 3H-UTP was used at 0.6 μCi (0.29 μM total UTP). Reactions were initiated by the addition of enzyme, incubated at 30° C. for 60 min, and stopped by adding 25 μl of 50 mM EDTA containing SPA beads (4 μg/μl, Amersham RPNQ 0007). Plates were read on a Packard TOPCOUNT® NXT after >1 hr incubation at room temperature.
A modified enzyme assay was performed essentially as described for the standard enzyme assay except for the following: The biotinylated oligo dT12 primer was precaptured on streptavidin-coated SPA beads by mixing primer and beads in assay buffer and incubating at room temperature for one hour. Unbound primer was removed after centrifugation. The primer-bound beads were resuspended in 20 mM Hepes buffer, pH 7.5 and used in the assay at final concentrations of 20 nM primer and 0.67 μg/μl beads. Order of addition in the assay: enzyme (14 nM) was added to diluted compound followed by the addition of a mixture of template (0.2 nM), 3H-UTP (0.6 μCi, 0.29 μM), and primer-bound beads, to initiate the reaction; concentrations given are final. Reactions were allowed to proceed for 4 hours at 30° C.
IC50 values for compounds were determined using seven different [I]. IC50 values were calculated from the inhibition using the formula y=A+((B−A)/(1+((C/x)^D))).

HCV replicon = HCV replicon assay (FRET or luciferase reporter); format: cell-based; conditions: Hepatitis C virus, one of the methods described
Excerpt: To perform the HCV FRET screening assay, 96-well cell culture plates were used, The FRET peptide (Anaspec, Inc.) (Taliani et al., Anal. Biochem., 240:60-67 (1996)) contains a fluorescence donor, EDANS, near one end of the peptide and an acceptor, DABCYL, near the other end. The fluorescence of the peptide is quenched by […] resonance energy transfer (RET) between the donor and the acceptor, but as the NS3 protease cleaves the peptide the products are released from RET quenching and the fluorescence of the donor becomes apparent. The assay reagent was made as follows: 5× cell Luciferase cell culture lysis reagent from Promega (#E153A) diluted to 1× with dH2O, NaCl added to 150 mM final, the FRET peptide diluted to 20 μM final from a 2 mM stock.
To prepare plates, HCV replicon cells, with or without a Renilla luciferase reporter gene, were trypsinized and placed into each well of a 96-well plate with titrated test compounds added in columns 3 through 12; columns 1 and 2 contained a control compound (HCV protease inhibitor), and the bottom row contained cells without compound. The plates were then placed in a CO2 incubator at 37° C.
Subsequent to addition of the test compounds described above (FRET Assay Preparation), at various times the plate was removed and Alamar blue solution (Trek Diagnostics, #00-100) was added per well as a measure of cellular toxicity. After reading in a CYTOFLUOR® 4000 instrument (PE Biosystems), plates were rinsed with PBS and then used for FRET assay by the addition of 30 ul of the FRET peptide assay reagent described above (FRET Assay Preparation) per well. The plate was then placed into the CYTOFLUOR® 4000 instrument which had been set to 340 excite/490 emission, automatic mode for 20 cycles and the plate read in a kinetic mode. Typically, the signal to noise using an endpoint analysis after the reads was at least three-fold. Alternatively, after Alamar blue reading, plates were rinsed with PBS, 50 ul of DMEM (high glucose) without phenol red was added and plates were then used for luciferase assay using the Promega DUAL-GLO® Luciferase Assay System.
Compound analysis was determined by quantification of the relative HCV replicon inhibition and the relative cytotoxicity values. To calculate cytoxicity values, the average Alamar Blue fluorescence signals from the control wells were set as 100% non-toxic. The individual signals in each of the compound test wells were then divided by the average control signal and multiplied by 100% to determine […]. To calculate the HCV replicon inhibition values, an average background value was obtained from the two wells containing the highest amount of HCV protease inhibitor at the end of the assay period. These numbers were similar to those obtained from naïve Huh-7 cells.
The background numbers were then subtracted from the average signal obtained from the control wells and this number was used as 100% activity. The individual signals in each of the compound test wells were then divided by the averaged control values after background subtraction and multiplied by 100% to determine percent activity. EC50 values for a protease inhibitor titration were calculated as the concentration which caused a 50% reduction in FRET or luciferase activity. The two numbers generated for the compound plate, percent cytoxicity and percent activity were used to determine compounds of interest for further analysis.
The HCV replicon luciferase assay was developed to monitor the inhibitory effects of compounds described in the disclosure on HCV viral replication. Utilization of a replicon luciferase reporter assay was first described by Krieger et al (Krieger, N. et al., J. Virology, 75(10):4614-4624 (2001)). HUH-7 cells, constitutively expressing the HCV replicon, were grown in Dulbecco's Modified Eagle Media (DMEM) (Gibco-BRL) containing 10% Fetal calf serum (FCS) (Sigma) and 1 mg/ml G418 (Gibco-BRL). […]

T1 sequence (Q9WMX2 2420-2992): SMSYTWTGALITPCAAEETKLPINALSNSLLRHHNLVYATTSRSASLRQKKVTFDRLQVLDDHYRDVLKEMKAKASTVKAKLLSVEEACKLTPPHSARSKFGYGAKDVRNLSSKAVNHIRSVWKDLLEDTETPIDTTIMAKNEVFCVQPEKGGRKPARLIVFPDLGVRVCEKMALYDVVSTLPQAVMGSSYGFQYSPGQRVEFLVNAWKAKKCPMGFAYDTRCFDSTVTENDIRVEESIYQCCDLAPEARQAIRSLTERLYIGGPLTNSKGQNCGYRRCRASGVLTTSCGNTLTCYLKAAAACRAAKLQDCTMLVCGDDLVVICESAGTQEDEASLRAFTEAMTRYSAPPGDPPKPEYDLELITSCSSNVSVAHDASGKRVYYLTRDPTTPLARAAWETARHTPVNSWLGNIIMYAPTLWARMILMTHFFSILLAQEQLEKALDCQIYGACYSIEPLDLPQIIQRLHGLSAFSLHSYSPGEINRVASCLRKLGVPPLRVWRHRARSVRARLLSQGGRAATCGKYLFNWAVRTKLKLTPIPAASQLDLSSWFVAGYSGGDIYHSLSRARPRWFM

Compound | IC50 (HCV NS5B; class symbol) [nM] | IC50 (HCV NS5B; exact value) [nM] | EC50 (HCV replicon; class symbol) [nM] | EC50 (HCV replicon; exact value) [nM]
CCOC(=O)c1cnn(C2CCC2)c1C1=Cc2cc(OC)ccc2-c2c(C3CCCCC3)c3ccc(C(=O)OC(C)(C)C)cc3n2C1 | > 500 |  |  | 
COc1ccc2c(c1)C=C(c1c(C(=O)O)cnn1C1CCC1)Cn1c-2c(C2CCCCC2)c2ccc(C(=O)NS(=O)(=O)CC(C)C)cc21 | 1.7 to 500 |  |  | 
COc1ccc2c(c1)C=C(c1c(C(=O)O)cnn1C1CCC1)Cn1c-2c(C2CCCCC2)c2ccc(C(=O)NS(=O)(=O)C(C)C)cc21 | 1.7 to 500 |  |  | 
CCOC(=O)c1cnn(C2CCC2)c1C1=Cc2cc(OC)ccc2-c2c(C3CCCCC3)c3ccc(C(=O)NS(=O)(=O)CC(C)C)cc3n2C1 | 1.7 to 500 |  |  | 
CCOC(=O)c1cnn(C2CCC2)c1C1=Cc2cc(OC)ccc2-c2c(C3CCCCC3)c3ccc(C(=O)NS(=O)(=O)C(C)C)cc3n2C1 | 1.7 to 500 |  |  | 
CCOC(=O)c1cnn(C2CCOCC2)c1C1=Cc2cc(OC)ccc2-c2c(C3CCCCC3)c3ccc(C(=O)O)cc3n2C1 | 1.7 to 500 |  |  | 
CCOC(=O)c1cnn(C2CCOCC2)c1C1=Cc2cc(OC)ccc2-c2c(C3CCCCC3)c3ccc(C(=O)NS(=O)(=O)C(C)C)cc3n2C1 | 1.7 to 500 |  |  | 
COc1ccc2c(c1)C=C(c1c(C(=O)O)cnn1C1CCOCC1)Cn1c-2c(C2CCCCC2)c2ccc(C(=O)NS(=O)(=O)C(C)C)cc21 | 1.7 to 500 |  |  | 
CCOC(=O)c1cnn(C2CCOCC2)c1C1=Cc2cc(OC)ccc2-c2c(C3CCCCC3)c3ccc(C(=O)NS(=O)(=O)CC(C)C)cc3n2C1 | 1.7 to 500 |  |  | 
COc1ccc2c(c1)C=C(c1c(C(=O)O)cnn1C1CCOCC1)Cn1c-2c(C2CCCCC2)c2ccc(C(=O)NS(=O)(=O)CC(C)C)cc21 | 1.7 to 500 |  |  | 
COc1ccc2c(c1)C=C(c1c(C(=O)N3C[C@@H](C)O[C@@H](C)C3)cnn1C1CCOCC1)Cn1c-2c(C2CCCCC2)c2ccc(C(=O)NS(=O)(=O)C(C)C)cc21 | 1.7 to 500 | 2.6 | 1.7 to 500 | 8.9
COc1ccc2c(c1)C=C(c1c(C(=O)N3CCOCC3)cnn1C1CCOCC1)Cn1c-2c(C2CCCCC2)c2ccc(C(=O)NS(=O)(=O)C(C)C)cc21 | 1.7 to 500 |  | 1.7 to 500 | 
COc1ccc2c(c1)C=C(c1c(C(=O)N3C4CCC3CN(C)C4)cnn1C1CCOCC1)Cn1c-2c(C2CCCCC2)c2ccc(C(=O)NS(=O)(=O)C(C)C)cc21 | 1.7 to 500 |  | 1.7 to 500 | 
COc1ccc2c(c1)C=C(c1c(C(=O)N3C[C@@H](C)N(C)[C@@H](C)C3)cnn1C1CCOCC1)Cn1c-2c(C2CCCCC2)c2ccc(C(=O)NS(=O)(=O)C(C)C)cc21 | 1.7 to 500 |  | 1.7 to 500 | 
CCN1C[C@@H]2C[C@H]1CN2C(=O)c1cnn(C2CCOCC2)c1C1=Cc2cc(OC)ccc2-c2c(C3CCCCC3)c3ccc(C(=O)NS(=O)(=O)C(C)C)cc3n2C1 | 1.7 to 500 |  | 1.7 to 500 | 
COc1ccc2c(c1)C=C(c1c(C(=O)N3CC4CCC(C3)N4C)cnn1C1CCOCC1)Cn1c-2c(C2CCCCC2)c2ccc(C(=O)NS(=O)(=O)C(C)C)cc21 | 1.7 to 500 |  | 1.7 to 500 | 
COc1ccc2c(c1)C=C(c1c(C(=O)N3C[C@@H](C)O[C@@H](C)C3)cnn1C1CCOCC1)Cn1c-2c(C2CCCCC2)c2ccc(C(=O)NS(=O)(=O)CC(C)C)cc21 | 1.7 to 500 |  | 1.7 to 500 | 
COc1ccc2c(c1)C=C(c1c(C(=O)N3CCOCC3)cnn1C1CCOCC1)Cn1c-2c(C2CCCCC2)c2ccc(C(=O)NS(=O)(=O)CC(C)C)cc21 | 1.7 to 500 | 4.2 | 1.7 to 500 | 8.4
COc1ccc2c(c1)C=C(c1c(C(=O)N3C4CCC3CN(C)C4)cnn1C1CCOCC1)Cn1c-2c(C2CCCCC2)c2ccc(C(=O)NS(=O)(=O)CC(C)C)cc21 | 1.7 to 500 |  | 1.7 to 500 | 
COc1ccc2c(c1)C=C(c1c(C(=O)N3C[C@@H](C)N(C)[C@@H](C)C3)cnn1C1CCOCC1)Cn1c-2c(C2CCCCC2)c2ccc(C(=O)NS(=O)(=O)CC(C)C)cc21 | 1.7 to 500 |  | 1.7 to 500 | 
COc1ccc2c(c1)C=C(c1c(C(=O)O)noc1C1CC1)Cn1c-2c(C2CCCCC2)c2ccc(C(=O)NS(=O)(=O)N(C)C)cc21 |  |  | 1.7 to 500 | 
COc1ccc2c(c1)C=C(c1c(C(=O)N3CCCN(C)CC3)cnn1C1CCC1)Cn1c-2c(C2CCCCC2)c2ccc(C(=O)NS(=O)(=O)C(C)C)cc21 | 1.7 to 500 |  |  | 
CCN1CC2CC1CN2C(=O)c1c(C2=Cc3cc(OC)ccc3-c3c(C4CCCCC4)c4ccc(C(=O)NS(=O)(=O)C(C)C)cc4n3C2)ncn1C1CC1 (centres unmarked) | 1.7 to 500 |  |  | 
COc1ccc2c(c1)C=C(c1ncn(C3CC3)c1C(=O)N1C[C@@H](C)O[C@@H](C)C1)Cn1c-2c(C2CCCCC2)c2ccc(C(=O)NS(=O)(=O)C(C)C)cc21 |  |  | 1.7 to 500 | 
COc1ccc2c(c1)C=C(c1c(C(=O)N3CC4CCC3CN4)cnn1C1CCC1)Cn1c-2c(C2CCCCC2)c2ccc(C(=O)NS(=O)(=O)C(C)C)cc21 (centres unmarked) |  |  | 1.7 to 500 | 
COc1ccc2c(c1)C=C(c1c(C(=O)N3CCOCC4(CNC4)C3)cnn1C1CCC1)Cn1c-2c(C2CCCCC2)c2ccc(C(=O)NS(=O)(=O)C(C)C)cc21 |  |  | 1.7 to 500 | 350
